Data reported in patent US8592448B2 (OSI Pharmaceuticals, LLC, priority 2008, dated 2013).

Legend:
phosphorylated c-MET = target: T1, phosphorylated c-MET (Homo sapiens, UniProt P08581); assay: c-MET cell mechanistic assay (phosphorylated c-MET in MKN45 cells); type: cell-based; settings: MKN45 cell line, four hours incubation, phosphorylated c-MET levels, at least duplicate experiments; read-out: Met mech IC50
T1 construct: endogenous in cells; host or cells: MKN45
Experimental: The cellular activity of the compounds of the present invention may be determined by the following procedure. MKN45 cells were plated in Falcon 3072 96-well plates in growth media (RPMI, 10% FBS, 1% L-glutamine) at a density of 5000 cells/well and incubated at 37° C., 5% CO2 overnight. The following day, one-tenth volume of a 10× concentration of compounds was added to the wells in a 6-point dilution series. The dilutions series was composed of an initial 1:5 dilution in DMSO, followed by a 1:10 dilution in growth media, for a final DMSO concentration on cells of 0.5%. Control wells were treated with 0.5% DMSO. The typical range of dilution was 10 μM to 3 nM. Once compound was added to the cells, plates were incubated for four hours at 37° C., 5% CO2. Plates were then washed in PBS, and lysed in triton-based lysis buffer. Lysates were transferred to a precoated capture plate made by Biosource (Cat # KH00281). The phosphorylated c-MET levels were measured by incubating with a rabbit polyclonal antibody against phosphorylated c-MET ([pYpYpY1230/1234/1235]) followed by an anti-rabbit antibody conjugated to HRP. Signal was measured on a Wallac Victor plate reader at 450 nm. The DMSO signal of the control wells was defined as 100% and the percent of inhibition of phosphorylated c-Met was expressed as percent of control. IC50 values were determined from the percent of control data using a standard four-parameter model.
(§1) The IC50 values of exemplary compounds of the present invention determined in a c-MET cell mechanistic assay using the MKN45 cell line according to the procedures described herein in at least duplicate experiments are abbreviated as follows and are shown in Table 3: A, IC50≦0.1 μM; B, 0.1 μM<IC50≦1 μM; C, 1 μM<IC50≦10 μM; D, IC50>10 μM; ND, not determined. The Example # of Table 3 corresponds to the compound example number as illustrated in the Examples section.

MKN45 cells = assay: MKN45 cell proliferation assay (CellTiter-Glo); type: cell-based; settings: Homo sapiens, MKN-45, 72 h, MKN45 cell line, 3 days incubation, at least duplicate experiments, read-out: Prolif. IC50
Experimental: The effect of inhibitors on the proliferation of MKN45 cells was determined using the following protocol. MKN45 cells were plated in Corning 3917 96-well white tissue culture treated plates in growth medium (RPMI, 10% FCS) at a density of 5000 cells/well in a total volume of 135 μL and incubated at 37° C., 5% CO2, 95% humidity overnight. The following day, one-tenth volume of a 10× concentration of compounds was added to the wells in an 8-point dilution series. The dilution series was composed of an initial 1:5 dilution of a 10 mM stock of compound in DMSO, followed by serial 1:4 dilutions in DMSO, then a 1:20 dilution in growth medium prior to the 1:10 dilution into the cell plate. Final DMSO concentration on the cells was 0.1%, there were control wells treated with both 0.1% DMSO and no DMSO. The typical dilution range is 10 μM to 0.6 nM. Once the compound was added to the cells, plates were incubated for 3 days at 37° C., 5% CO2 at 95% humidity. On the third day, after allowing all cells and reagents to come to room temperature, 25 μL of CellTiter-Glo reagent (Promega # G7573) was added to the wells. Plates were shaken on a platform for 10 minutes prior to reading luminescence for 0.1 seconds. The signal of the control wells was taken as 100% growth and growth inhibition was expressed as percent of control. IC50 values were determined from the percent of control data using a standard four-parameter model.
as §1, with “a” for “a c-MET”, “proliferation” for “mechanistic”, “2:” for “3:”, “2” for “3”

T1 sequence (P08581 25-1390): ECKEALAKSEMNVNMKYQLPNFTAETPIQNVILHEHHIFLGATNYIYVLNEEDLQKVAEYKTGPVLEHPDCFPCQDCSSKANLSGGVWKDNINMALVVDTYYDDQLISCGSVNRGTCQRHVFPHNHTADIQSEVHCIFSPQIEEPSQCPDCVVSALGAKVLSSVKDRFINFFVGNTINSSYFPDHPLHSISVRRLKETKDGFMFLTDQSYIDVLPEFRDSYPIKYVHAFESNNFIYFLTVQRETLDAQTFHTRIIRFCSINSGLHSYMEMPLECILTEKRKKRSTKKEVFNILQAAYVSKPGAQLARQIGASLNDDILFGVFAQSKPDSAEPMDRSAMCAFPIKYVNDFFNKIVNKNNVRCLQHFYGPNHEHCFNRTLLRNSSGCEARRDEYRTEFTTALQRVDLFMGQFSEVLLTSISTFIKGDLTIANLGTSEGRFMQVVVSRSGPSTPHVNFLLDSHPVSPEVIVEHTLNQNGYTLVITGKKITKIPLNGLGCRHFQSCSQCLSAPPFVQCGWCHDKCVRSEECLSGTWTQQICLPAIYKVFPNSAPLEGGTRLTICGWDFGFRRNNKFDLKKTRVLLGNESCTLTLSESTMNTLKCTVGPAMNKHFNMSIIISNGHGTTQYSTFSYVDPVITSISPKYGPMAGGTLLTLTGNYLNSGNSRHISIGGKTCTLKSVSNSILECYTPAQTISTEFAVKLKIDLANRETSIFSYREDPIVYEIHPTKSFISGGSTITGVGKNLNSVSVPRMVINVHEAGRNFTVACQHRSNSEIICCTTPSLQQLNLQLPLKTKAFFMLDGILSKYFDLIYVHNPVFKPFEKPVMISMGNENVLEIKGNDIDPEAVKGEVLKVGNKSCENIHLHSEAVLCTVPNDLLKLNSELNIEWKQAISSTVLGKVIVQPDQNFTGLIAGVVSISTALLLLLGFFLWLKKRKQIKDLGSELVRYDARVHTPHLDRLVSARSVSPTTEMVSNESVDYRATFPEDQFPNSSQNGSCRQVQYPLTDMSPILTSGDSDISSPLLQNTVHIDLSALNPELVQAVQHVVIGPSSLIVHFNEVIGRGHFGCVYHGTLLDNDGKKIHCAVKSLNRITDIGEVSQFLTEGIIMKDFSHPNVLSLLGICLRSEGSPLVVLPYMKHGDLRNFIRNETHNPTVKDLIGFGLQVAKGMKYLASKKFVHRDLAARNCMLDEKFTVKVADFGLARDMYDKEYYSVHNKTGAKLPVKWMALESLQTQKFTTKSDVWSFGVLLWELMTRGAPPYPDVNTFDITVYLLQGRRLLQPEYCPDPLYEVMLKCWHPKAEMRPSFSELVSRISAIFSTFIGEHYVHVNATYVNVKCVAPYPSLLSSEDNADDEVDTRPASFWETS

Row | SMILES | IC50 (phosphorylated c-MET) [nM] | IC50 (MKN45 cells) [nM]
1 | CC(c1c(Cl)ccc(F)c1Cl)c1c[nH]c2ncc(C3=CCN(C(=O)C(C)(C)N)CC3)cc12 (stereo not drawn) [Example 45, 2-Amino-1-(4-{3-[1-(2,6-dichloro-3-fluorophenyl)ethyl]-1H-pyrrolo[2,3-b]pyridin-5-yl}-3,6-dihydro-2H-pyridin-1-yl)-2-methylpropan-1-one] | ≤ 100 | ≤ 100
2 | CC(c1c(Cl)ccc(F)c1Cl)c1c[nH]c2ncc(-c3ccc(C(=O)N4CCOCC4)cc3)cc12 (stereo not drawn) [Example 13, (4-{3-[1-(2,6-Dichloro-3-fluorophenyl)ethyl]-1H-pyrrolo[2,3-b]pyridin-5-yl}phenyl)morpholin-4-ylmethanone] | 100 to 1000 | 100 to 1000
3 | CC(c1c(Cl)ccc(F)c1Cl)c1c[nH]c2ncc(C3=CCN(C(=O)CO)CC3)cc12 (stereo not drawn) [Example 43, 1-(4-{3-[1-(2,6-Dichloro-3-fluorophenyl)ethyl]-1H-pyrrolo[2,3-b]pyridin-5-yl}-3,6-dihydro-2H-pyridin-1-yl)-2-hydroxyethanone] | ≤ 100 | ≤ 100
4 | CC(c1c(Cl)ccc(F)c1Cl)c1c[nH]c2ncc(-c3ccc(C(=O)N(C)C)cc3)cc12 (stereo not drawn) [Example 3, 4-{3-[1-(2,6-Dichloro-3-fluorophenyl)ethyl]-1H-pyrrolo[2,3-b]pyridin-5-yl}-N,N-dimethylbenzamide] | 100 to 1000 | 100 to 1000
5 | CC(c1c(Cl)ccc(F)c1Cl)c1c[nH]c2ncc(-c3ccc(C(=O)NCCN4CCOCC4)cc3)cc12 (stereo not drawn) [Example 7, 4-{3-[1-(2,6-Dichloro-3-fluorophenyl)ethyl]-1H-pyrrolo[2,3-b]pyridin-5-yl}-N-(2-morpholin-4-ylethyl)benzamide] | 100 to 1000 | 100 to 1000
6 | CC(c1c(Cl)ccc(F)c1Cl)c1c[nH]c2ncc(C3=CCN(C(=O)[C@@H](C)O)CC3)cc12 (stereo partly drawn) [Example 40, (R)-1-(4-{3-[1-(2,6-Dichloro-3-fluorophenyl)ethyl]-1H-pyrrolo[2,3-b]-pyridin-5-yl}-3,6-dihydro-2H-pyridin-1-yl)-2-hydroxypropan-1-one] | ≤ 100 | 100 to 1000
7 | CNS(=O)(=O)c1ccc(-c2cnc3[nH]cc(C(C)c4c(Cl)ccc(F)c4Cl)c3c2)cc1 (stereo not drawn) [Example 23, 4-{3-[1-(2,6-Dichloro-3-fluorophenyl)ethyl]-1H-pyrrolo[2,3-b]pyridin-5-yl}-N-methylbenzenesulfonamide] | 100 to 1000 | 1000 to 10000
8 | C[C@H](c1c(Cl)ccc(F)c1Cl)c1c[nH]c2ncc(-c3ccc(C(=O)N4CCNCC4)cc3)cc12 [Example 69, (4-{3-[(S)-1-(2,6-Dichloro-3-fluorophenyl)ethyl]-1H-pyrrolo[2,3-b]pyridin-5-yl}phenyl)piperazin-1-ylmethanone] | ≤ 100 | 100 to 1000
9 | C[C@H](c1c(Cl)ccc(F)c1Cl)c1c[nH]c2ncc(-c3cnn(C4CCNCC4)c3)cc12 [Example 80, 3-[(S)-1-(2,6-Dichloro-3-fluorophenyl)ethyl]-5-(1-piperidin-4-yl-1H-pyrazol-4-yl)-1H-pyrrolo[2,3-b]pyridine] | ≤ 100 | ≤ 100
10 | C[C@H](c1c(Cl)ccc(F)c1Cl)c1c[nH]c2ncc(-c3cnn(C4CCN(S(C)(=O)=O)CC4)c3)cc12 [Example 73, 3-[(S)-1-(2,6-Dichloro-3-fluorophenyl)ethyl]-5-[1-(1-methane-sulfonylpiperidin-4-yl)-1H-pyrazol-4-yl]-1H-pyrrolo[2,3-b]pyridine] | ≤ 100 | ≤ 100
11 | CC(c1c(Cl)ccc(F)c1Cl)c1c[nH]c2ncc(-c3ccccc3)cc12 (stereo not drawn) [Example 19, 3-[1-(2,6-Dichloro-3-fluorophenyl)ethyl]-5-phenyl-1H-pyrrolo[2,3-b]-pyridine] | 1000 to 10000 | > 10000
12 | CC(=O)N1CCC(n2cc(-c3cnc4[nH]cc(C(C)c5c(Cl)ccc(F)c5Cl)c4c3)cn2)CC1 (stereo not drawn) [Example 48, 1-[4-(4-{3-[1-(2,6-Dichloro-3-fluorophenyl)ethyl]-1H-pyrrolo[2,3-b]pyridin-5-yl]-pyrazol-1-yl}-piperidin-1-yl)-ethanone] | ≤ 100 | ≤ 100
